# According to the SangsterLogP compilation:
# Assay: method code SF-AS, from DOI: 10.1248/cpb.24.61
# Conditions: pH 7.4
row,logD,SMILES
1,-0.92,Cc1c(NC(N)=O)c(=O)n(-c2ccccc2)n1C
2,0.69,Cc1c(N(C)C(C)C(=O)N(C)C)c(=O)n(-c2ccccc2)n1C (configuration not stated)
3,-0.37,Cc1c(NC(=O)CN(C)C)c(=O)n(-c2ccccc2)n1C
4,0.35,Cc1c(NC(C)C(=O)N(C)C)c(=O)n(-c2ccccc2)n1C (configuration not stated)
5,-0.24,CCC(C(=O)c1c(C)n(C)n(-c2ccccc2)c1=O)N(C)C (configuration not stated)
6,-0.95,Cc1c(C(=O)CN(C)C)c(=O)n(-c2ccccc2)n1C
7,-0.78,Cc1c(C(=O)C(C)N(C)C)c(=O)n(-c2ccccc2)n1C (configuration not stated)
